Data reported in article PMC8333062, “Chemical tools for epichaperome-mediated interactome dysfunctions of the central nervous system” (Nature Communications, 2021).
“And” between values parts separate entries of the source, which are not always exact repeats. Equal entries are not always repeated.

Columns and labels:
[1] = test system: epichaperome +ve (MDA-MB-468) tumors; assay: Small-animal PET, xenografted tumors; type: in vivo, mouse; settings: 48 h post-injection
Procedure: (§1) We opted for the use of xenografted MDA-MB-468 and ASPC1 tumors in mice (target-positive versus target-negative, respectively, with equal total HSP90 levels, Fig. 3b). Because PU-HZ151 rapidly distributes throughout the body (see Fig. 2a and further below), and taking in consideration the high concentration of chaperones in cells (>100 µM)[41], a bolus injection creates a rapid equilibrium mixture state. Subsequent to reaching an ‘equilibrium’ state throughout the body, PU-HZ151 then rapidly clears from plasma, which initiates a body-wide dilution state. Recording the differential concentration-time curves for PU-HZ151 in the two tumor types offers the relative dissociation rate constants, but most importantly, informs on probe’s epichaperome selectivity (Fig. 3a).
(§2) For subcutaneous xenografts, mice were anesthetized with 2% isoflurane (Baxter Healthcare) (2 l min^−1 medical air). […]
(§3) Orthotopic GBM xenografts in mice were established by injection of 5 × 10^5 cells in 2 μL PBS. […] PET data for each mouse was recorded using static scans of 15 min and acquired at the indicated times post injection. Quantification and %ID g^−1 values were calculated by manually drawing regions of interests in three different frames and determining the average values using ASI Pro VM™ MicroPET Analysis software (Siemens Medical Solutions, Knoxville, TX).

[2] = test system: epichaperome -ve (ASPC1) tumors; assay: Small-animal PET, xenografted tumors; type: in vivo, mouse; settings: 48 h post-injection
Procedure: as §1, §2, §3

[3] = test system: intracranial MDA-MB-468; assay: Survival studies in mice; type: in vivo, mouse; settings: 50 mg kg^−1 iv, three times per week, n=7
[4] = test system: HepG2 cells (Pgp +ve); assay: Cell viability, ATP levels 72 h; type: cell-based, human; settings: for Cell viability (ATP levels): HEPG2
Procedure: Supplementary Fig. 15: PU-HZ151 activity in cells is unaffected by Pgp overexpression. a Two Pgp-positive cells lines, Kasumi-1 and HepG2, were tested for epichaperome-positivity. β-Actin, loading control. b ATP levels in cell treated for 72 h with 0 to 1 µM PU-HZ151. Data are presented as means ±s.e.m. of three experimental repeats. Control, vehicle (DMSO) treated cells. c Western blot analysis of aberrant signaling pathway inhibition by […]
(also on this page, place not known: MDA‐MB-468ASPC1Kasumi Hep G2 ATP levels %Control MDA‐MB-468ASPC1Kasumi 1Hep G2 β-Actin HSP90α Native-PAGE SDS PAGE 100- β-Actin 1)

[5] = target: T1, 97 kinases (Homo sapiens, UniProt P10721, T670I/V559D); assay: scanEDGE off-target screen; type: binding; settings: read-out: %Ctrl KIT(V559D,T670I)
T1 construct: purchased Ambit Biosciences (scanEDGE / KINOMEscan) scanEDGE 97 kinase panel; host or cells: T7 phage in E. coli BL21-derived host; remaining kinases in HEK-293 cells

[6] = target: T2, 97 kinases (Homo sapiens, UniProt Q9BUB5); assay: scanEDGE off-target screen; type: binding; settings: read-out: %Ctrl MKNK1
T2 construct: purchased Ambit Biosciences (scanEDGE / KINOMEscan) scanEDGE 97 kinase panel; host or cells: T7 phage in E. coli BL21-derived host; remaining kinases in HEK-293 cells
T2 sequence (Q9BUB5 whole entry): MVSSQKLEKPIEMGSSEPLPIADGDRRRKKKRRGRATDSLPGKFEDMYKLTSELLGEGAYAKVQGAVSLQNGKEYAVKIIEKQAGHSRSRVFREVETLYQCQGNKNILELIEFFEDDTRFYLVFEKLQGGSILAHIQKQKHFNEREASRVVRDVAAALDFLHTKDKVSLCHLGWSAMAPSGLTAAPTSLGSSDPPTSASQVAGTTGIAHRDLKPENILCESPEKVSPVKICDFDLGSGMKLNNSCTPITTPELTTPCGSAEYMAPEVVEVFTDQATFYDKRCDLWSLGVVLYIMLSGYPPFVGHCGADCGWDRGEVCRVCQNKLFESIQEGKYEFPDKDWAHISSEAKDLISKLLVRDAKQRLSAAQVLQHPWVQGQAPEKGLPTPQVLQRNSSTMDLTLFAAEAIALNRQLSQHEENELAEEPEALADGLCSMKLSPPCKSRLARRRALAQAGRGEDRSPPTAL

T1 sequence (P10721 26-976 V559D/T670I): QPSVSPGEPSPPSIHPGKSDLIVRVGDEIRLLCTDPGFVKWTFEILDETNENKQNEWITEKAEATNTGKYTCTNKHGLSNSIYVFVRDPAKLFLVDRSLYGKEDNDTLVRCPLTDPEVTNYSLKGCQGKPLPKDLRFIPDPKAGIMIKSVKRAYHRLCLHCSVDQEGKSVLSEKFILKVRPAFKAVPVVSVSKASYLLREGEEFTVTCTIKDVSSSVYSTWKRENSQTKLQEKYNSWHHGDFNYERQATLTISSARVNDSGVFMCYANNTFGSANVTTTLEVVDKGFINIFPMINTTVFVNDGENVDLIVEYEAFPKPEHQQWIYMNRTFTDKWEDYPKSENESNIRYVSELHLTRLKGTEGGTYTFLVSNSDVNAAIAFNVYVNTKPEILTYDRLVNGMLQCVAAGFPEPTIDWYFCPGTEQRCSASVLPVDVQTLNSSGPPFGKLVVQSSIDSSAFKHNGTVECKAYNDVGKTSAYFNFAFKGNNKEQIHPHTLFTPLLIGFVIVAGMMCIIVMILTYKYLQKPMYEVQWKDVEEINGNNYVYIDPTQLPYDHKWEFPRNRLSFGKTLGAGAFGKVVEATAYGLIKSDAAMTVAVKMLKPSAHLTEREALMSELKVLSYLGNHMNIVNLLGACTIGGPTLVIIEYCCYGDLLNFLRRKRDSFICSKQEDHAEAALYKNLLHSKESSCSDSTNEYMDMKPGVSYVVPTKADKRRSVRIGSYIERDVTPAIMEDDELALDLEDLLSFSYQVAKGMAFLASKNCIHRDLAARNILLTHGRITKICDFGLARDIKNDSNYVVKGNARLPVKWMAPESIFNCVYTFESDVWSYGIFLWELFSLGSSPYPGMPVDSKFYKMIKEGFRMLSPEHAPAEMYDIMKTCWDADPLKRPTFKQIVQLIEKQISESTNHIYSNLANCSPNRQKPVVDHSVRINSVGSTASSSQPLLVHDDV

## CC(C)(C)CNCCn1c(Sc2cc3c(cc2I)OCO3)nc2c(N)ncnc21 [Compound 85]
[1]
  tumor retention by PET: clear retention and visualization of MDA-MB-468 tumors even at 48 h post-injection
[2]
  tumor retention by PET: no signal was noted in ASPC1 tumors
[3]
  survival vs vehicle, log-rank P: 0.0001
[4]
  activity in Pgp-overexpressing vs Pgp-low cells: comparable activity
[4]; 1.95312 nM, replicates, listed as PU-HZ151, 0.00195312 µM
  Cell viability (ATP levels): 87.8706 and 102.165
[4]; 3.90625 nM, replicates, listed as PU-HZ151, 0.00390625 µM
  Cell viability (ATP levels): 90.4471 and 81.5412
[4]; 7.8125 nM, replicates, listed as PU-HZ151, 0.0078125 µM
  Cell viability (ATP levels): 90.4471 and 73.8824
[4]; 15.625 nM, replicates, listed as PU-HZ151, 0.015625 µM
  Cell viability (ATP levels): 83.4588 and 82.6941
[4]; 31.25 nM, replicates, listed as PU-HZ151, 0.03125 µM
  Cell viability (ATP levels): 65.6706 and 60.9647
[4]; 62.5 nM, replicates, listed as PU-HZ151, 0.0625 µM
  Cell viability (ATP levels): 37.2471 and 23.6471
[4]; 125 nM, replicates, listed as PU-HZ151, 0.125 µM
  Cell viability (ATP levels): 13.5294 and 11.2118
[4]; 500 nM, replicates, listed as PU-HZ151, 0.5 µM
  Cell viability (ATP levels): 2.612 and 2.282
[4]; 1000 nM, replicates, listed as PU-HZ151, 1 µM
  Cell viability (ATP levels): 1.824
[4]; Homo sapiens, HepG2, HEPG2, 1.95312 nM, replicates
  viability at 0.00195312 µM: 99.4%
[4]; Homo sapiens, HepG2, HEPG2, 3.90625 nM, replicates
  viability at 0.00390625 µM: 81.2%
[4]; Homo sapiens, HepG2, HEPG2, 7.8125 nM, replicates
  viability at 0.0078125 µM: 79.7%
[4]; Homo sapiens, HepG2, HEPG2, 15.625 nM, replicates
  viability at 0.015625 µM: 72.1%
[4]; Homo sapiens, HepG2, HEPG2, 31.25 nM, replicates
  viability at 0.03125 µM: 70.3%
[4]; Homo sapiens, HepG2, HEPG2, 62.5 nM, replicates
  viability at 0.0625 µM: 27.4%
[4]; Homo sapiens, HepG2, HEPG2, 125 nM, replicates
  viability at 0.125 µM: 16.9%
[4]; Homo sapiens, HepG2, HEPG2, 250 nM, replicates
  viability at […]: 2.72%
[4]; Homo sapiens, HepG2, HEPG2, 500 nM, replicates
  viability at 0.5 µM: 1.86%
[4]; Homo sapiens, HepG2, HEPG2, 1000 nM, replicates
  viability at 1 µM: 1.85%
[5]
  remaining binding at 10 µM: 96%
[6]
  remaining binding at 10 µM: 100%
